How the values were obtained:
[1] = In vivo oral gavage of KPT-330 every other day for two weeks: body weight; parameters: species or system C57BL/6 wild-type mice
Description: Following a similar protocol as previously reported for SINE treatment in the context of cancer (Arango et al., 2017; Azmi et al., 2013; Hing et al., 2016; Zheng et al., 2014), KPT-330 was administered at a dose 10 mg/kg via oral gavage every other day over a two-week span in C57BL/6 wild-type mice, and body weight was monitored for any clear toxicity. […] Given animal weight loss on the standard chemotherapeutic dosage regimen, and additional evidence that sustained dosage of SINEs adversely impacts T cell populations (Tyler et al., 2017), Applicants sought to explore dosing regimens well below 10 mg/kg, to see if a pro-Paneth phenotype may exist below potential toxicities. […] Applicants tracked animal weight every other day, and at day 14 collected the proximal and distal thirds of the small intestine for histological quantification of Paneth, stem, and goblet populations (FIG. 26A). […] Paneth cells were counted within well preserved crypts, with at minimum 30 crypts quantified per animal (representative images FIG. 30C) and then averaged to get mean Paneth cells per crypt in distal and proximal thirds of the small intestine. […] Applicants additionally quantified the abundance of Olfm4+ stem cells as well as PAS+ goblet cells within the same animals to ascertain whether the effect of SINE treatment was restricted to the Paneth cell compartment (representative images FIG. 30D,E). […]

[2] = test system: human small intestinal organoids; experiment: Single-cell RNA-seq (Seq-Well S^3) of human small intestinal organoids with or without KPT-330; assay type: cell-based
Description: To more completely explore the changes induced by KPT-330 in this human organoid model, and any donor associated effects, Applicants again utilized scRNA-seq via Seq-Well S^3. Applicants performed a comparison between untreated and KPT-330-treated organoids from each donor over a 6-day differentiation, with each sample consisting of single cells from >1,000 organoids. The resulting dataset consists of 2,484 cells. UMI, percent mitochondrial, and detected gene distributions are similar across samples, within acceptable quality bounds (genes >500, UMI<30,000, percent mitochondrial <35) (FIG. 60A).
For both, organoids at each sampling were harvested from 4-6 pooled Matrigel domes, totaling >1,000 organoids per sample. Excess Matrigel was removed per previously described washing protocol, and organoids were resuspended in TrypLE at 37 C for 15 min, with vigorous homogenization through a p200 pipette tip every 5 min. After 15 min, the suspension was passed through a 30 uM cell strainer twice, and counted under brightfield microscopy with trypan blue staining for viable single cells. For human organoid scRNA-seq, antibody-based cell hashing was performed, with all samples pooled following labeling and three washes in FACS buffer to remove excess antibody. Each sample was manually counted to equally weight in cell pools, and then the pool was split and processed as four identical samples.
Antibody hashed arrays were demultiplex with doublets and negative-staining cells removed following default settings of the Seurat function HTODemux.
Applicants performed integrated analysis on a combined dataset of 2,484 cells, with quality metrics for gene number, captured UMIs, and percent mitochondrial genes reported in Supp. […] Dimensional reduction and clustering was performed following normalization in Seurat V3 via SCTransform^71. Applicants performed variable gene identification and dimensionality reduction utilizing the first 18 principal components based on the elbow method to identify 7 clusters using Louvain clustering (Resolution=0.5). […]

[3] = test system: human small intestinal organoids; experiment: Immunofluorescent imaging for LYZ, human small intestinal organoids; assay type: cell-based; conditions: 160 nM KPT-330, 6 days
Description: (§1) To extend the observations from the murine organoid system, Applicants sought to examine how XPO1 inhibition via KPT-330 may effect human small intestinal stem cells by utilizing a stem-cell enriched human small intestinal organoid model^46 (see Methods).
Immunofluorescent imaging. For immunofluorescence staining of organoids, intestinal organoids in Matrigel were fixed with 4% paraformaldehyde, then transferred to centrifuge tube. After washing with PBS, the isolated organoids were permeabilized with 1% Triton X followed by incubation with blocking buffer (1% BSA+3% Donkey Serum+0.2% Triton X in PBS) at RT. The organoids were then stained with primary antibodies and fluorescent dye-labeled secondary antibodies as well as with DAPI. Slides were covered with […] ® Mounting Media (VECTOR). […] Images were acquired with a confocal laser scanning microscope (Nikon Eclipse 90i). For the analysis of Lysozyme+ cells per organoid area, the number of counted Lysozyme+ cells were normalized to measured organoid surface area. Image J was used for the data analysis.

[4] = test system: ISC-enriched organoids; experiment: Primary screen, 384-well 2.5-D organoid differentiation (ENR+CD, 6 days): basal lysozyme secretion (LYZ.NS); assay type: cell-based, murine; conditions: strictly standardized mean difference, primary screen
Description: High-throughput screening.

[5] = test system: ISC-enriched organoids; experiment: Secondary (validation) screen, 384-well 2.5-D, ENR+CD 6 days, n=8 wells, vs ENR+CD+DMSO control: carbachol-induced lysozyme secretion (LYZ.S); assay type: cell-based, murine
[6] = test system: human small intestinal organoids; experiment: Lysozyme secretion assay, stem cell-enriched human small intestinal organoids; assay type: cell-based; conditions: increasing KPT-330 concentrations, 6 days, three duodenal donors
Description: as §1
Human crypt isolation and organoid culture. Samples from adult human duodenum were collected for organoid culture in accordance with MGH IRB guidance. Human donor tissue was non-inflamed excess tissue collected during bulk surgical resection via MGH pathology. Crypts were isolated from bulk resections as follows. Bulk resections were cut into approximately 0.25 cm sections from epithelial surface, and washed in PBSO repeatedly by gently pipetting the fragments using a 10-ml pipette until the supernatant was clear. Fragments were rocked on ice with crypt isolation buffer (10 mM EDTA, 10 mM HEPES, 2% FCS in PBSO) for 30 min. After isolation buffer was removed, fragments were washed with cold PBSO by vigorous shaking to release the crypts, this process was repeated with reserved crypt-laden supernatant fractions 4-6 times or until supernatant was free of intact crypts (visual inspection). […]
Lysozyme secretion assay. […] The solution was replaced to a 96-well white microplate, and luminescent signals were measured by a microplate reader (infinite M200, Tecan).

[7] = test system: ISC-enriched organoids; experiment: Secondary (validation) screen, 384-well 2.5-D, ENR+CD 6 days, n=8 wells, vs ENR+CD+DMSO control: basal lysozyme secretion (LYZ.NS); assay type: cell-based, murine
[8] = validated doses, secondary screen

O=C(/C=C\n1cnc(-c2cc(C(F)(F)F)cc(C(F)(F)F)c2)n1)NNc1cnccn1 [KPT-330]
body weight ([1]; 0.01, 0.05 or 0.2 mg/kg oral gavage every other day): no significant changes in animal weight at any dose | body weight ([1]; 10 mg/kg oral gavage every other day): significant weight loss indicative of toxicity | LYZ expression (scRNA-seq) ([2]; 160 nM KPT-330, 6 days, all donors): increased LYZ expression | cell type composition (scRNA-seq) ([2]; 160 nM KPT-330, 6 days, pan-donor): decreases in cycling stem and progenitor populations, increases in quiescent progenitors and enterocytes | XPO1 expression (scRNA-seq) ([2]; following KPT-330 treatment): compensatory increase in XPO1 expression | LYZ+ cell abundance (IF imaging) [3]: increased LYZ+ cell abundance | SSMD.LYZ.NS ([4]; 1st of the 4 dose lines of the treatment (dose not given)): 1.021 | SSMD.LYZ.NS ([4]; 2nd of the 4 dose lines of the treatment (dose not given)): −1.822 | SSMD.LYZ.NS ([4]; 3rd of the 4 dose lines of the treatment (dose not given)): −1.556 | SSMD.LYZ.NS ([4]; 4th of the 4 dose lines of the treatment (dose not given)): −1.714 | Z.LYZ.S ([5]; Dose 0.02 uM): −0.028 | repSSMD.LYZ.S ([5]; Dose 0.02 uM): −0.044 | Z.LYZ.S ([5]; Dose 0.04 uM): −0.587 | repSSMD.LYZ.S ([5]; Dose 0.04 uM): −0.955 | Z.LYZ.S ([5]; dose 0.08 uM): 1.031 | repSSMD.LYZ.S ([5]; dose 0.08 uM): 1.678 | increase in LYZ.S (stimulated LYZ secretion) relative to ENR+CD control [5, 8]: 50-75% | normalized LYZ secretion [6]: normalized LYZ secretion significantly increases with dose | Z.LYZ.NS ([7]; Dose 0.02 uM): −0.038 | repSSMD.LYZ.NS ([7]; Dose 0.02 uM): −0.050 | Z.LYZ.NS ([7]; Dose 0.04 uM): −0.318 | repSSMD.LYZ.NS ([7]; Dose 0.04 uM): −0.506 | Z.LYZ.NS ([7]; dose 0.08 uM): 1.132 | repSSMD.LYZ.NS ([7]; dose 0.08 uM): 1.621 | increase in LYZ.NS (basal LYZ secretion) relative to ENR+CD control [7, 8]: 50-75%

Reference: US20230398130A1, “METHODS AND COMPOSITIONS FOR DIFFERENTIATING STEM CELLS” (Massachusetts Institute of Technology, priority 2020, published 2023)
